Biological target: T1, recombinant autotaxin (Homo sapiens, UniProt Q13822)
T1 construct: made in house; host or cells: Hi5 insect cells (baculovirus)
Assay: Autotaxin test (enzyme test), Amplex Red fluorescence with LPC substrate
Format: biochemical
Conditions: autotaxin inhibition (enzyme test); for remaining activity at 10 µM: 10 μM compound, read-out: % Control at 10 μM
Procedure: Autotaxin Inhibition (Enzyme Test)
Autotaxin Test (Enzyme Test)
The autotaxin activity is measured indirectly using Amplex Red reagent. Amplex Red is measured here as fluorogenic indicator for the H2O2 formed. In detail, autotaxin converts the substrate lysophosphatidylcholine (LPC) into phosphocholine and lysophosphatidylic acid (LPA). After this reaction, the phosphocholine is reacted with alkaline phosphatase to give inorganic phosphate and choline. In the next step, choline is oxidised by choline oxidase to give betaine, with formation of H2O2. H2O2 reacts with Amplex Red reagent in the presence of peroxidase (horseradish peroxidase) in a 1:1 stoichiometry and forms the highly fluorescent resorufin. The fluorescence is measured in a reaction-dependent kinetic mode in order that fluorescent signals from possible other fluorescent substances which are not involved in the reaction can be corrected out.
3 μl of a standard solution or of the test substances (substances with the name A(n)) in individual concentrations dissolved in 20 mM Hepes pH 7.2 with a maximum of 11% of DMSO are pre-incubated together with 20 μl (19 ng) of highly purified recombinant autotaxin in test buffer in a black microtitre plate provided with 384 wells at 22° C. for 30 min. The reaction is then initiated by addition of 10 μl of L-α-lysophosphatidylcholine (LPC), where the final concentration of LPC is 75 μM. The mixture is incubated at 37° C. for 90 min. After the incubation, Amplex Red reagent, peroxidase (horseradish peroxidase) and choline oxidase is added, and the fluorescence is immediately measured at 612 nm with excitation of 485 nm in a “Tecan Ultra multimode” reader. The activity of autotaxin is calculated indirectly via detection of the H2O2 formed.
• Microtitre plate: PS microplate, 384 wells, small volume, black Corning, Cat#3677 • Protein: recombinant autotaxin (Baculovirale Hi5 Expression) • Substrate: L-α-lysophosphatidylcholine (chicken egg)); Avanti Polar Lipids #830071 P • Standard: C14 LPA, Avanti Polar Lipids, Cat#857120P • Detection reagent: Amplex Red reagent; Invitrogen #A12222; 5 mg dissolved in 1.923 ml of DMSO peroxidase type VI-A (horseradish) from Sigma #P6782; 5 mg dissolved in 7.45 ml of test buffer, choline oxidase; Sigma # C5896; 50 U dissolved in 2.47 ml of test buffer • Detection reagent mix: 1:50 dilution of detection reagent in test buffer • Test buffer: 10 mM Tris HCl, Merck, Cat #1.08219, pH 8, 1 mM; CaCl2×2 H2O, Merck #1.02382

Compound	remaining activity at 10 µM	IC50
O=C1Nc2ccc(-c3ccc(Cl)cc3)cc2C(=O)N2CCN(C(=O)C(O)c3cccc(Cl)c3)CC12 (stereo not drawn) [Compound A41, 7-(4-Chlorophenyl)-2-[2-(3-chlorophenyl)-2-hydroxyacetyl]-1,3,4,11a-tetrahydro-2H,10H-2,4a,10-triazadibenzo[a,d]cycloheptene-5,11-dione]	68%	> 1 µM
O=C1Nc2ccc(-c3ccc(Cl)cc3)cc2C(=O)N2CCN(C(=O)C(O)c3cccc(C(F)(F)F)c3)CC12 (stereo not drawn) [Compound A45, 7-(4-Chlorophenyl)-2-[2-hydroxy-2-(3-trifluoro-methylphenyl)acetyl]-1,3,4,11a-tetrahydro-2H,10H-2,4a,10-triazadibenzo[a,d]cycloheptene-5,11-dione]	61%	> 1 µM
CC(C)(C(=O)N1CCN2C(=O)c3cc(-c4ccc(Cl)cc4)ccc3NC(=O)C2C1)c1ccccc1 (stereo not drawn) [Compound A46, 7-(4-Chlorophenyl)-2-(2-methyl-2-phenylpropionyl)-1,3,4,11a-tetrahydro-2H,10H-2,4a,10-triaza-dibenzo[a,d]cycloheptene-5,11-dione]	–	> 1 µM
O=C1Nc2ccc(-c3ccc(Cl)cc3)cc2C(=O)N2CCN(C(=O)C3(c4ccc(Cl)cc4)CC3)CC12 (stereo not drawn) [Compound A47, 7-(4-Chlorophenyl)-2-[1-(4-chlorophenyl)-cyclopropanecarbonyl]-1,3,4,11a-tetrahydro-2H,10H-2,4a,10-triazadibenzo[a,d]cycloheptene-5,11-dione]	–	> 1 µM
O=C1Nc2ccc(-c3ccc(Cl)cc3)cc2C(=O)N2CCN(C(=O)C3(c4ccccc4)CC3)CC12 (stereo not drawn) [Compound A49, 7-(4-Chlorophenyl)-2-(1-phenylcyclopropane-carbonyl)-1,3,4,11a-tetrahydro-2H,10H-2,4a,10-triazadibenzo[a,d]cycloheptene-5,11-dione]	–	> 1 µM
Nc1nc(C(=O)N2CCN3C(=O)c4cc(-c5ccc(Cl)cc5)ccc4NC(=O)C3C2)cs1 (stereo not drawn) [Compound A50, 2-(2-Aminothiazole-4-carbonyl)-7-(4-chlorophenyl)-1,3,4,11a-tetrahydro-2H,10H-2,4a,10-triaza-dibenzo[a,d]cycloheptene-5,11-dione]	80%	–
O=C1Nc2ccc(-c3ccc(Cl)cc3)cc2C(=O)N2CCN(C(=O)c3ccccn3)CC12 (stereo not drawn) [Compound A51, 7-(4-Chlorophenyl)-2-(pyridine-2-carbonyl)-1,3,4,11a-tetrahydro-2H,10H-2,4a,10-triaza-dibenzo[a,d]cycloheptene-5,11-dione]	37%	> 1 µM
CC(C)(C)[C@H](O)C(=O)N1CCN2C(=O)c3cc(-c4ccc(Cl)cc4)ccc3NC(=O)[C@@H]2C1 [Compound A54, (S)-7-(4-Chlorophenyl)-2-((S)-2-hydroxy-3,3-di-methyl-1-oxobutyl)-1,3,4,11a-tetrahydro-2H,10H-2,4a,10-triazadibenzo[a,d]cycloheptene-5,11-dione]	84%	–
CC(C)(C)[C@@H](NC=O)C(=O)N1CCN2C(=O)c3cc(-c4ccc(Cl)cc4)ccc3NC(=O)C2C1 (stereo partly drawn) [Compound A55, N-{(R)-1-[7-(4-Chlorophenyl)-5,11-dioxo-3,4,5,10,11,11a-hexahydro-1H-2,4a,10-triaza-dibenzo[a,d]cycloheptene-2-carbonyl]-2,2-dimethylpropyl}formamide]	71%	–
CC(C)(C(=O)N1CCN2C(=O)c3cc(-c4ccc(Cl)cc4F)ccc3NC(=O)C2C1)c1ccccc1 (stereo not drawn) [Compound A58, 7-(4-Chloro-2-fluorophenyl)-2-(2-methyl-2-phenyl-propionyl)-1,3,4,11a-tetrahydro-2H,10H-2,4a,10-triazadibenzo[a,d]cycloheptene-5,11-dione]	-27%	> 1 µM
CC(C)(C)[C@H](O)C(=O)N1CCN2C(=O)c3cc(-c4ccc(Cl)cc4F)ccc3NC(=O)C2C1 (stereo partly drawn) [Compound A60, 7-(4-Chloro-2-fluorophenyl)-2-((S)-2-hydroxy-3,3-dimethylbutyryl)-1,3,4,11a-tetrahydro-2H,10H-2,4a,10-triazadibenzo[a,d]cycloheptene-5,11-dione]	-27%	0.1 to 1 µM

Results, then the molecule that gave them:

remaining activity at 10 µM	IC50	Compound
48%	> 1 µM	O=C1Nc2ccc(-c3ccc(Cl)cc3)cc2C(=O)N2CCN(C(=O)C(O)c3ccccc3Cl)CC12 (stereo not drawn) [Compound A40, 7-(4-Chlorophenyl)-2-[2-(2-chlorophenyl)-2-hydroxyacetyl]-1,3,4,11a-tetrahydro-2H,10H-2,4a,10-triazadibenzo[a,d]cycloheptene-5,11-dione]
12%	> 1 µM	COC(C(=O)N1CCN2C(=O)c3cc(-c4ccc(Cl)cc4)ccc3NC(=O)C2C1)c1ccccc1 (stereo not drawn) [Compound A42, 7-(4-Chlorophenyl)-2-(2-methoxy-2-phenylacetyl)-1,3,4,11a-tetrahydro-2H,10H-2,4a,10-triaza-dibenzo[a,d]cycloheptene-5,11-dione]
31%	> 1 µM	O=C1Nc2ccc(-c3ccc(Cl)cc3)cc2C(=O)N2CCN(C(=O)[C@H](O)c3ccccc3)CC12 (stereo partly drawn) [Compound A43, 7-(4-Chlorophenyl)-2-((R)-2-hydroxy-2-phenylacetyl)-1,3,4,11a-tetrahydro-2H,10H-2,4a,10-triazadibenzo[a,d]cycloheptene-5,11-dione]
48%	> 1 µM	Cc1cccc(C(O)C(=O)N2CCN3C(=O)c4cc(-c5ccc(Cl)cc5)ccc4NC(=O)C3C2)c1 (stereo not drawn) [Compound A44, 7-(4-Chlorophenyl)-2-(2-hydroxy-2-m-tolylacetyl)-1,3,4,11a-tetrahydro-2H,10H-2,4a,10-triaza-dibenzo[a,d]cycloheptene-5,11-dione]
20%	> 1 µM	O=C1Nc2ccc(-c3ccc(Cl)cc3)cc2C(=O)N2CCN(C(=O)Nc3ccccc3)CC12 (stereo not drawn) [Compound A48, N-Phenyl-7-(4-chlorophenyl)-5,11-dioxo-3,4,5,10,11,11a-hexahydro-1H-2,4a,10-triaza-dibenzo[a,d]cycloheptene-2-carboxamide]
–	> 1 µM	CC(C)(C)[C@@H](N)C(=O)N1CCN2C(=O)c3cc(-c4ccc(Cl)cc4)ccc3NC(=O)C2C1 (stereo partly drawn) [Compound A53, 2-((R)-2-Amino-3,3-dimethylbutyryl)-7-(4-chloro-phenyl)-1,3,4,11a-tetrahydro-2H,10H-2,4a,10-triazadibenzo[a,d]cycloheptene-5,11-dione]
–	0.1 to 1 µM	CC(C)(C)[C@H](O)C(=O)N1CCN2C(=O)c3cc(-c4ccc(Cl)cc4)ccc3NC(=O)[C@H]2C1 [Compound A56, (R)-7-(4-Chlorophenyl)-2-((S)-2-hydroxy-3,3-di-methyl-1-oxobutyl)-1,3,4,11a-tetrahydro-2H,10H-2,4a,10-triazadibenzo[a,d]cycloheptene-5,11-dione]
-9%	> 1 µM	CC(C)[C@H](N)C(=O)N1CCN2C(=O)c3cc(-c4ccc(Cl)cc4F)ccc3NC(=O)C2C1 (stereo partly drawn) [Compound A59, 2-((S)-2-Amino-3-methylbutyryl)-7-(4-chloro-2-fluorophenyl)-1,3,4,11a-tetrahydro-2H,10H-2,4a,10-triazadibenzo[a,d]cycloheptene-5,11-dione]
